In US20230000863A1, “COMPOSITION CONTAINING AROMATIC HETEROCYCLIC COMPOUND IN AMORPHOUS FORM, AND PREPARATION METHOD THEREFOR AND USE THEREOF” (SHENZHEN CHIPSCREEN BIOSCIENCES CO., LTD., priority 2019, published 2023):

Experiments:
Type in all cases: in vivo
[1] = Pharmacokinetic test of pharmaceutical preparations in rats; details: both sexes, rat, po, fasted, gavage, 20 mg/kg of compound of Formula (1), LC-MS/MS
Description: Thirty healthy rats were selected and randomly divided into 5 groups, 6 rats (3 females, 3 males) per group, which were respectively the groups of the compound of Formula (1), the capsules of Formulation Example 1, the granules of Formulation Example 4, the tablets of Formulation Example 7, and the soft capsules of Formulation Example 10. During the experiment, the rats were fasted overnight before administration, and blood was collected from the orbit before administration, and the plasma was separated, which was taken as the blood concentration sample at 0 h. The gavage solutions were prepared by dispersing with purified water, the concentration of the gavage solutions was 2 mg/ml, and each rat was administered with the compound of Formula (1) at a dose of 20 mg/kg respectively. After administration, blood samples were collected at 15 min, 0.5 h, 1 h, 2 h, 4 h, 6 h, and 8 h, and each sample was collected about 0.5 ml, anticoagulated with heparin sodium, placed on ice after collection, and centrifuged within 1 hour to separate plasma, which was stored at −80° C. for later test. The drug concentration in plasma was measured by LC-MS/MS.

[2] = Pharmacokinetic test of pharmaceutical preparations in beagle dogs; details: po, fasted, gavage, 100 mg of compound of Formula (1) per dog, LC-MS/MS
Method: Nine healthy beagle dogs were selected, which were divided into the group of the compound of Formula (1), capsules of Formulation Example 1, and capsules of Formulation Example 11. During the experiment, the beagle dogs were fasted overnight before administration, and venous blood was collected before administration, and plasma was separated as the blood drug concentration sample at […]. Each beagle dog was administrated by gavage at a dose of 100 mg of the compound of Formula (1), respectively. After administration, blood samples were collected at 15 min, 0.5 h, 1 h, 2 h, 4 h, 8 h, and 24 h respectively. Each sample was collected about 0.5 ml, anticoagulated with heparin sodium, placed on ice after collection, and centrifuged within 1 hour to separate plasma, the drug concentration in plasma was measured by LC-MS/MS.

[3] = Pharmacokinetic test of compositions containing the compound of Formula (1) in rats; details: rat, po, fasted, gavage, 20 mg/kg of compound of Formula (1), LC-MS/MS
Method: Twenty-four healthy rats were selected and randomly divided into 4 groups, 6 rats per group, which were respectively compound of Formula (1), Example 3, Example 4 and Example 7. During the experiment, the rats were fasted overnight before administration, and blood was collected from the orbit before administration, and the plasma was separated, which was taken as the blood concentration sample at 0 h. The gavage solutions were prepared by dispersion with purified water, the concentration of the gavage solutions was 2 mg/ml, and each rat was administered with the compound of Formula (1) at a dose of 20 mg/kg, respectively. After administration, blood samples were collected at 15 min, 0.5 h, 1 h, 2 h, 4 h, 6 h, and 8 h, and each sample was collected about 0.5 ml, anticoagulated with heparin sodium, placed on ice after collection, and centrifuged within 1 hour to separate plasma, which was stored at −80° C. for later test. The drug concentration in plasma was measured by LC-MS/MS.

AUC(0-t) ([1]; plasma 0-8 h): 235 ng·h/mL | Cmax ([1]; plasma): 243 ng/mL | AUC(0-t) ([2]; plasma 0-24 h): 30 ng·h/mL | Cmax ([2]; plasma): 22 ng/mL | half-life ([2]; plasma): 24 min | AUC(0-t) ([3]; plasma 0-8 h): 235 ng·h/mL | Cmax ([3]; plasma): 243 ng/mL
Compound: C=CC(=O)N(C)c1cc(Nc2ncc(Cl)c(NCCCNC(=O)c3ccc(C#N)cc3)n2)ccc1F [Compound of Formula (1)]
